# Results reported in BindingDB's records for doi:10.7270/Q2PG1Q5Z (Broad Institute, 2010).
# Target: T1, Alkanal monooxygenase alpha chain (Vibrio harveyi, UniProt P07740)
# T1 sequence (P07740 whole entry): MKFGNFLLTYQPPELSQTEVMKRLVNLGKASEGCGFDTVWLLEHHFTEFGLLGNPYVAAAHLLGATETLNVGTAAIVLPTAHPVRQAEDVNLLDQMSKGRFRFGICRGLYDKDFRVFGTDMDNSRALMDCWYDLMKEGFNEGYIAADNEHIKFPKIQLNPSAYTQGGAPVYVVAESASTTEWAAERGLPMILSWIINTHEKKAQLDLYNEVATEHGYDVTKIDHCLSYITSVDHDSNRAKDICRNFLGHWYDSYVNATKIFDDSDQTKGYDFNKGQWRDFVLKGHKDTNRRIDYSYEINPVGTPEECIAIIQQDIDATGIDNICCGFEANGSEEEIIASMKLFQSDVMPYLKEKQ
# Test: AI-2 quorum sensing inhibitors, bioluminescence, confirmation, luminescence, dose retest, Vibrio harveyi (AID 2735)
row,Structure (SMILES),EC50
1,C=Cn1c(C(=O)O)ccc1-c1ccc(CC)cc1,25.8 µM
2,COc1cc(NC(=O)CN2C(=O)NC(c3ccccc3)(c3ccccc3)C2=O)cc(OC)c1 [MLS001176525],10 µM
3,CCc1ccc(S(=O)(=O)Nc2ccc(Br)cn2)cc1 [MLS001211346],18.1 µM
4,CCCc1ccc(S(=O)(=O)N(C)S(=O)(=O)c2ccc(F)cc2)cc1 [N-(4-fluorophenyl)sulfonyl-N-methyl-4-propylbenzenesulfonamide],8.81 µM
5,CN(C)S(=O)(=O)c1ccc(NC(=S)NC(=O)Cc2ccccc2)cc1 [N-[[4-(dimethylsulfamoyl)phenyl]carbamothioyl]-2-phenyl-ethanamide],> 160 µM
6,Cc1cccc(NS(=O)(=O)c2ccc(Oc3ccccc3)cc2)n1 [SMR000071466],12.5 µM
7,Cn1cnc(S(=O)(=O)Nc2ccc(OC(F)(F)F)cc2)c1 [SMR000314513],24.5 µM
